≈ marks a conversion by molar mass, not a printed value. Where “and” joins values, the source holds several entries; their conditions need not be identical. Equal values may be shown once. Read-outs that look alike come from different tables or passages of the source. A value given as a limit tells only on which side of the number the result lay.

For data set [1], the system named is C. difficile. Put plainly: microbe, parasite or virus in culture. In kind it is cell-based.
For data set [2] the following is noted: rats; cited from earlier work.
Data set [3] has as its system C. difficile. Format: in vivo, mice.
The target of the next data set is T1, TcdA (Clostridioides difficile, UniProt P16154).
T1 construct: made in house; host or cells: Bacillus megaterium (the general sentence on recombinant toxins)
Nature of the data set: cell-based. Format: cell-based, C. difficile. Particulars: for IC50: IC50 TcdA, means ± s.d.

For another data set, the system named is CaCo-2 cells. Put plainly: CaCo-2 monolayer integrity / trans-epithelial resistance after TcdB. In kind it is cell-based, human.
The test system of data set [4] is C. clostridioforme ATCC25537. Put plainly: organism not typed. In kind it is cell-based.
Another data set has as its system C. sporogenes ATCC3584. Put plainly: microbe, parasite or virus in culture. The note with it: Clostridium sporogenes. Format: cell-based.
The target of the next data set is TcdB027 (Clostridioides difficile, UniProt A0A9R0CDJ3). In kind it is cell-based, C. difficile.
Data set [5] has as its system C. difficile. Nature of the data set: microbe, parasite or virus in culture. Format: cell-based. The source holds these as a separate data set.
Data set [6] deals with T2, TcdB (Clostridioides difficile, UniProt P18177). Nature of the data set: cell-based. The arrangement: species or system C. difficile. The note with it: for inhibition at 40 µM: IMR-90, read-out: inhibition of TcdB-induced cell rounding.
Target sequence in this assay (P18177 2-2366 limits assumed): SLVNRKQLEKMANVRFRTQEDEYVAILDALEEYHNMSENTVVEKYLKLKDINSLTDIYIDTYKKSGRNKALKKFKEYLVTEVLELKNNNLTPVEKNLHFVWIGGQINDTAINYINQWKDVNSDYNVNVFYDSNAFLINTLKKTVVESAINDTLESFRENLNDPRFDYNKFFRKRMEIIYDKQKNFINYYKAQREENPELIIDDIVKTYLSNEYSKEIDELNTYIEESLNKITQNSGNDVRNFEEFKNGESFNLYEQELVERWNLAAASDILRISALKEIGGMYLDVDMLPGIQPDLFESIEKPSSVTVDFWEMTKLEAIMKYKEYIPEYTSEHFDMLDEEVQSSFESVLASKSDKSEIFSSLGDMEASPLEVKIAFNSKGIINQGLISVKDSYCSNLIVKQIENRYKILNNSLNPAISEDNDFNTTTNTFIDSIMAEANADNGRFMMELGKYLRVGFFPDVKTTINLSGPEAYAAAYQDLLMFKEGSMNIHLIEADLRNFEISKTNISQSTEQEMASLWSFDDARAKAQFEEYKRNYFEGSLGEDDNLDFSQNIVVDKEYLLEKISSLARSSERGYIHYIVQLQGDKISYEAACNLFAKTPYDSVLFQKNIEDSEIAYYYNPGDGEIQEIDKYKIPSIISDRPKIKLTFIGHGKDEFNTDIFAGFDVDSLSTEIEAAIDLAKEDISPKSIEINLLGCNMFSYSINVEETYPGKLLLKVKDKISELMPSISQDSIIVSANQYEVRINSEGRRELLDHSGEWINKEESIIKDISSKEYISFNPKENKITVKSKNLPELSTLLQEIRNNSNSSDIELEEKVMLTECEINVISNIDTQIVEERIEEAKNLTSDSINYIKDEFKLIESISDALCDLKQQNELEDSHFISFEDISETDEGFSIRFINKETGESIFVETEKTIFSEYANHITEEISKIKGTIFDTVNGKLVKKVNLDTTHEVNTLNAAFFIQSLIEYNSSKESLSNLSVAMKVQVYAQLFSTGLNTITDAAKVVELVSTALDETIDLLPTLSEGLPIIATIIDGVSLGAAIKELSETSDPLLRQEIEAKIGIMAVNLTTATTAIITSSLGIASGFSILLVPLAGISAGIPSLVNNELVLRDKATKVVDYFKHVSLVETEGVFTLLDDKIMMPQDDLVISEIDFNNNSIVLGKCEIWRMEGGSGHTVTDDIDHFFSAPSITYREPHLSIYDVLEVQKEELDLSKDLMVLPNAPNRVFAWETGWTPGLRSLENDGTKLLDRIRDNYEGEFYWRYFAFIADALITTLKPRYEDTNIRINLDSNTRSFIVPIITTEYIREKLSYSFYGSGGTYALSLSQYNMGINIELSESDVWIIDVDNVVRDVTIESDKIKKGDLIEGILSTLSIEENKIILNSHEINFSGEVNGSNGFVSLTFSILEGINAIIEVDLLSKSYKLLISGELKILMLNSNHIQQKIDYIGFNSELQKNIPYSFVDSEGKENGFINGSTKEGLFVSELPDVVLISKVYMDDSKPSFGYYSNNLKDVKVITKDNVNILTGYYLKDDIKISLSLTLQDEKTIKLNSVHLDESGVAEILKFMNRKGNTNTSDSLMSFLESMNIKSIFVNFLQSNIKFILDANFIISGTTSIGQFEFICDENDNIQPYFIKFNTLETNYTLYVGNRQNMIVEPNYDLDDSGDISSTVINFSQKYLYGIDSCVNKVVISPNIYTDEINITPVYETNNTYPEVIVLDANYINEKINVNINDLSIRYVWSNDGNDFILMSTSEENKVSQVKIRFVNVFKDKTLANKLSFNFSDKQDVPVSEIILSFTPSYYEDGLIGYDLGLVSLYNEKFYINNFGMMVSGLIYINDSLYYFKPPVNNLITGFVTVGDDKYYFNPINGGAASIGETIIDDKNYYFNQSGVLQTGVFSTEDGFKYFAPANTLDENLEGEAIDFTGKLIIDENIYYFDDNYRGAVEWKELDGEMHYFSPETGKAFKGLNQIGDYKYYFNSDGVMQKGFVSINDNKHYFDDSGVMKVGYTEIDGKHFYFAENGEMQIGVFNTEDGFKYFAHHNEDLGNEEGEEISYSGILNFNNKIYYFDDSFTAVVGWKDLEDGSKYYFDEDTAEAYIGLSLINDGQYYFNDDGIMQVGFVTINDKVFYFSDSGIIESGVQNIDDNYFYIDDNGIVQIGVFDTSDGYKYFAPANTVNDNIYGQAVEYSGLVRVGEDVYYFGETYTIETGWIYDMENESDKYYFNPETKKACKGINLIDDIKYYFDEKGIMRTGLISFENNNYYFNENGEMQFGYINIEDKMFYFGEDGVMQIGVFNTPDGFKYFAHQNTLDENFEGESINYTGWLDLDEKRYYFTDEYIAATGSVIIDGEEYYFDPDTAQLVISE
Data set [7] addresses T3, TcdB glucosyltransferase domain (GTD) (Clostridioides difficile, UniProt P18177).
T3 construct: The TcdB glucosyltransferase domain (GTD); made in house
Nature of the data set: In vitro GTD glucosyltransferase assay. In kind it is biochemical, C. difficile. The note with it: up to 10 μM niclosamide, n=3. The method, then: (§1) FIG. 2. […] (a) Representative Western blot image for intracellular Rac1 glucosylation. […] Cells were harvested in lysis buffer 1 h later and processed for Western blot as described in Online Methods. […] (b) In vitro GTD glucosyltransferase assay. […] Activity was measured as described in the Online Methods. (c) In vitro auto-processing assay.
For each reaction containing 10 nM GTD and 25 μM UDP-glucose, compound was added (1% final DMSO) and preincubated 30 minutes, followed by addition of gstRac1 to 0.8 μM. The reaction was stopped after a 60 min reaction time with an equal volume of Laemmli loading buffer plus β-mercaptoethanol (Bio-Rad, Mississauga. ON), heated to 90° C. before immediately loading on an SDS polyacrylamide gel. […]
Reactions were started with the simultaneous addition of 2.5 μl each of GST-Rac1 (20 μM final) and a mixture of 0.5 μCi of UDP-[6 ^3H]-glucose (0.5 μM final) and cold UDP-glucose (19.5 μM final). […] The beads were allowed to settle overnight at room temperature to increase the signal to background ratio before being analyzed on a TopCount NXT scintillation counter (PerkinElmer). Results were analyzed using GraphPad Prism 5.0.
Experiments were performed as per the manufacturer's instructions. […] Results were analyzed with SoftMax Pro 6.2.2 and GraphPad Prism 5.0.

The target of the next data set is T4, TcdB APD domain (Clostridioides difficile, UniProt P18177).
T4 construct: Cell lysates were prepared as described for full-length TcdB; made in house; host or cells: Bacillus megaterium
Put plainly: In vitro inositol hexakisphosphate-induced autoprocessing (cysteine protease) assay. In kind it is biochemical, C. difficile. Particulars: up to 10 μM niclosamide. The source says: Cleavage was visualized by electrophoresing the samples on SDS polyacrylamide gels and staining with Coomassie Blue R250.

For data set [8], the target named is T2, TcdB.
Description: TcdB protein was diluted in phosphate buffer (100 mM KPO4, 150 mM NaCl, pH 7) containing 5×SYPRO Orange (Invitrogen, Burlington, ON) and a serial dilution of test compound. A Biorad CFX96 qRT-PCR thermocycler was used to establish a temperature gradient from 15° C. to 95° C. in 30 s increments, while simultaneously recording the increase in SYPRO Orange fluorescence as a consequence of binding to hydrophobic regions exposed on unfolded proteins. The Bio-Rad CFX Manager 3.1 software was used to integrate the fluorescence curves to calculate the melting point.
Data set [9] addresses T2, TcdB. This is another data set of the same source.
Target sequence in this assay (P18177 2-2366 limits assumed): as above
Description: Loss of cellular ATP as a marker of high dose (1 nM) TcdB toxicity was measured as described for the Arrayscan screen protocol, except that CellTiter-Glo reagent (Promega, Madison, Wis.) was added to the cells 3 h post toxin challenge, and luminescence was recorded on a Spectramax M5 plate reader.
The target of the next data set is T5, CDT (Clostridioides difficile, UniProt A0A9R0BM17+A0A9R0BM20).
T5 sequence (A0A9R0BM17 210-876): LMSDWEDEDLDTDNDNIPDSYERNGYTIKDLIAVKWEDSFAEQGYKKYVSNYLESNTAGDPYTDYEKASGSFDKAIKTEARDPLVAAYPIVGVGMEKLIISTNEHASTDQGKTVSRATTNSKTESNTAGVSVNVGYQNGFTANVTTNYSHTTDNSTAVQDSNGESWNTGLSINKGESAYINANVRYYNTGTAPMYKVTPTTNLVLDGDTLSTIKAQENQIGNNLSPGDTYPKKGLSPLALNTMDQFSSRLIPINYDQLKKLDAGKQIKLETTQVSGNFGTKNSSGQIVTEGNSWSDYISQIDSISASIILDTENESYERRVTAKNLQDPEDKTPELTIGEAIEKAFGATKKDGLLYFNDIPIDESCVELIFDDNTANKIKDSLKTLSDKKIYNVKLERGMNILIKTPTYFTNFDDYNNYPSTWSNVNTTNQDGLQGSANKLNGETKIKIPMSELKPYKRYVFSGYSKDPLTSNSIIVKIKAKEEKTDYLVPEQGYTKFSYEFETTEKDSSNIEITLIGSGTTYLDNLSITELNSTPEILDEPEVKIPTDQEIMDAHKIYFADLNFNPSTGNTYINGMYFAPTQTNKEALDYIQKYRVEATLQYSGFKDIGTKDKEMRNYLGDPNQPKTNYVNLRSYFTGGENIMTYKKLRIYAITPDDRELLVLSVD
T5 sequence (A0A9R0BM20 44-463): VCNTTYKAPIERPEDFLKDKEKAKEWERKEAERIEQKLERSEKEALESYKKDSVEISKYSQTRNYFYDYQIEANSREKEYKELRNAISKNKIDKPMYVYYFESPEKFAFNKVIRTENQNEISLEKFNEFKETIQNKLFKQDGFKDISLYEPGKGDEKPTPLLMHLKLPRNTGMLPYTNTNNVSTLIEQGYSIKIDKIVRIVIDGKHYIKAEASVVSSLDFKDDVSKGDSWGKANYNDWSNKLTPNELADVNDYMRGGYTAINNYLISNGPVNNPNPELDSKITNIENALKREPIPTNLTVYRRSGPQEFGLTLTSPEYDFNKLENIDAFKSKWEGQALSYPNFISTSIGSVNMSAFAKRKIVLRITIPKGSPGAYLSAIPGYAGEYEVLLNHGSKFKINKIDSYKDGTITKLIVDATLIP
Nature of the data set: Inhibition of C. difficile toxin-induced cytotoxicity, CDT (actin depolymerization). Particulars: same doses that protect cells from TcdB.

The target of data set [10] is T2, TcdB. Particulars: mammalian cells expressing all three known receptors.
Target sequence in this assay (P18177 2-2366 limits assumed): as the sequence (P18177 2-2366 limits assumed) above
Description: TcdB binding to Vero cells was assessed as described earlier with minor modifications(57). […] Mixtures were then added to confluent cultures of pre-chilled Vero cells and plates were incubated on ice for 45 min. Plates were then washed 3 times with cold PBS and harvested by scraping. Membranes were isolated, and samples analyzed by Western blot as previously described (57).
The next data set has as its system Rac1 glucosylation. Nature of the data set: Intracellular Rac1 glucosylation Western blot. Format: cell-based, human. The note with it: IMR-90 cells, niclosamide 15 min then TcdB, harvested 1 h later. How it is done: as §1
The test system of the next data set is IMR90 cells. Put plainly: Lysotracker assay, endosomal pH neutralization. Format: cell-based, human. Particulars: pre-treating cells. The method, then: Endosomal pH neutralization was assayed essentially as described by Slater et al. (55); IMR90 cells in complete EMEM were plated at 14,000 cells/well (˜95% confluency). After 24 h the media was changed to SFM for 60 minutes, then compound was added to 40 μM and incubated at 37° C. for 2 h. Lysotracker red DND-99 and Hoechst (Life Technologies) were added to 0.1 μM and 1 μM, respectively, and incubated for 60 minutes. Excess dye was removed by media change and the fluorescence at ex/em 574/594 was read on an Envision plate reader (Perkin Elmer). Representative cell images were taken using a Zeiss Axiovert fluorescence microscope using DAPI and Texas Red filters to visualize the Hoechst and Lysotracker staining, respectively.

T1 sequence (P16154 whole entry, looked up): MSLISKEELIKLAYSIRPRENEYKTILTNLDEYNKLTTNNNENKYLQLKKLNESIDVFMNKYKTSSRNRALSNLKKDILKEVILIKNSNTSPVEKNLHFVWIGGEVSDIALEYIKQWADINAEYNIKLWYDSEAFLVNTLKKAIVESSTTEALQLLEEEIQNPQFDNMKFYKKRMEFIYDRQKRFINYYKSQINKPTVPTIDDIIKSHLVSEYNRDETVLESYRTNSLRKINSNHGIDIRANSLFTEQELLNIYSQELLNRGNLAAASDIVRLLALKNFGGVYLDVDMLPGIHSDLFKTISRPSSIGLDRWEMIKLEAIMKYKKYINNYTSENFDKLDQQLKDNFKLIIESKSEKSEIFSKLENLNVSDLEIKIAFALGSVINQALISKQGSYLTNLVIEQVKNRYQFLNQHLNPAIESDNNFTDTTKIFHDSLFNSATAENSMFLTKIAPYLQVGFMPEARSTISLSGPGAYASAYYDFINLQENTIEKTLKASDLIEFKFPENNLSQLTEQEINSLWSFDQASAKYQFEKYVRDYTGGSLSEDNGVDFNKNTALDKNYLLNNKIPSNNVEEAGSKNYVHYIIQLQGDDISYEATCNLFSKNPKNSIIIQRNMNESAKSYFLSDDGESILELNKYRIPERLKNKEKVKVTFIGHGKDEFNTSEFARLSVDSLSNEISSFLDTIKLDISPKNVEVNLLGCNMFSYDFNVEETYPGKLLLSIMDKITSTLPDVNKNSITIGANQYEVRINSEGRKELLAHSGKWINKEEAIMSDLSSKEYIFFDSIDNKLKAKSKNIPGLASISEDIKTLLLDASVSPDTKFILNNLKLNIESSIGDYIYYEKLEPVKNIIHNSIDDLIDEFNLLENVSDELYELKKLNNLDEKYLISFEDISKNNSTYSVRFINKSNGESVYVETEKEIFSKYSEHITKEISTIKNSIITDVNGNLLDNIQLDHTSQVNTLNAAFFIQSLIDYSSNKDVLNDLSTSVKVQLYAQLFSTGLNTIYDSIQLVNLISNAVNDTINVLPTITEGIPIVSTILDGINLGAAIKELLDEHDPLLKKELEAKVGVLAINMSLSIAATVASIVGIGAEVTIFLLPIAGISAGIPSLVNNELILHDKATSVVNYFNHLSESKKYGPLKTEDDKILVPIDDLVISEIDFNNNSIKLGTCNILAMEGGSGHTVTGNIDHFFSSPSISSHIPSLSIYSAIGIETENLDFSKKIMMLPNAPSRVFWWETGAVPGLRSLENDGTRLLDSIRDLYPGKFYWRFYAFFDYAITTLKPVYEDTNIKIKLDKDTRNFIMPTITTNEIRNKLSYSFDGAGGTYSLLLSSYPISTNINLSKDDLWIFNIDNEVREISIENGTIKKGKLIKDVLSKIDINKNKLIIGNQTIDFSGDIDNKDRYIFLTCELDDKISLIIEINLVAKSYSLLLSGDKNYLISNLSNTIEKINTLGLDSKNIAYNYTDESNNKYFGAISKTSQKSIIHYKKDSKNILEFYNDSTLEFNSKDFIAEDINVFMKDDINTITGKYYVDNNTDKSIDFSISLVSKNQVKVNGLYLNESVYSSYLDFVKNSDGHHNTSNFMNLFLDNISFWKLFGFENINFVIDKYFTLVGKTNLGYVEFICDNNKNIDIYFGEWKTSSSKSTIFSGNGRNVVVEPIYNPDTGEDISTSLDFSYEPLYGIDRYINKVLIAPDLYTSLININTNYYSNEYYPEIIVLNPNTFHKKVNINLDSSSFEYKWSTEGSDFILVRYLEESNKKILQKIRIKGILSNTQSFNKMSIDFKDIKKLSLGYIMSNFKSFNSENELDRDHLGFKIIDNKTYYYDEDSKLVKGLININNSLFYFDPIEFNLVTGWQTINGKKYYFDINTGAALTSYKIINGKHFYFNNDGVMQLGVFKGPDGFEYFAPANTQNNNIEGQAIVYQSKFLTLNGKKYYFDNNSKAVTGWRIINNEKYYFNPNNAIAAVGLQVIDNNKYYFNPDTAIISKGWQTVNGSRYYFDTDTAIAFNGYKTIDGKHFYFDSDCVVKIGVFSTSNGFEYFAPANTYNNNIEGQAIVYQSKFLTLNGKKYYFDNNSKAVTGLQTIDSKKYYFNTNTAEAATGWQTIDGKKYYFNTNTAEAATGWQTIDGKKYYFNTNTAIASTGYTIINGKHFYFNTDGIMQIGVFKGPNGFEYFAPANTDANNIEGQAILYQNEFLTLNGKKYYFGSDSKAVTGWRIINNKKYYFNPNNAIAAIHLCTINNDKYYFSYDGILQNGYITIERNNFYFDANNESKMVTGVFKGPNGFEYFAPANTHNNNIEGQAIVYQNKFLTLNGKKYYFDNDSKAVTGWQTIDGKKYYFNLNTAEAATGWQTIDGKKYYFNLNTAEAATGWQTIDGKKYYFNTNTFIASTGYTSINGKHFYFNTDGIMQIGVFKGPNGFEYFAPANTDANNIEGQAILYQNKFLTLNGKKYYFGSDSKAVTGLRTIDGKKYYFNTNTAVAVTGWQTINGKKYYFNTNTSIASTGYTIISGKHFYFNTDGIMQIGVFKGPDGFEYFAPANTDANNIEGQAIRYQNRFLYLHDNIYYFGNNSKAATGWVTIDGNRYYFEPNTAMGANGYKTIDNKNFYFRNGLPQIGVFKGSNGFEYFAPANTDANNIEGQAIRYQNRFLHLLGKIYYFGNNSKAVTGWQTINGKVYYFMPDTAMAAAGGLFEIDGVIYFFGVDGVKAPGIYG
Description for CDT: Cells were stained with 1 uM Hoechst for 30 min, then combined photos were taken for each compound at a concentration corresponding to maximum protection from TcdB using a 10× objective and appropriate filter sets for Hoechst and Alexa488 fluorescence (Zeiss).

Turning to `CCc1c(Cl)c(O)c(Cl)c(O)c1C(=O)O[C@H]1[C@H](O)[C@H](OC)[C@H](OC/C2=C\C=C\C[C@H](O)/C(C)=C/[C@H](CC)[C@@H](O[C@@H]3OC(C)(C)[C@@H](OC(=O)C(C)C)[C@H](O)[C@@H]3O)/C(C)=C/C(C)=C/C[C@@H]([C@@H](C)O)OC2=O)O[C@@H]1C` [Fidaxomicin], the MIC against C. difficile [1] was 0.06 μg/mL and 0.06^4 μg/mL; against C. difficile [1] (Clostridioides difficile) it was 0.12 µg/mL (≈ 0.113 µM).
As to `O=C(Nc1ccc([N+](=O)[O-])cc1Cl)c1cc(Cl)ccc1O` [NEN, niclosamide ethanolamine], the “median oral lethal dose (LD50)” value in data set [2] was 10,000 mg/kg body weight. Moreover, the survival of recurrence result in the data set with C. difficile [3] (NEN 50 mg/kg) is given as “all NEN-treated mice survived recurrence”. Further, the “survival from C. difficile challenge” value with C. difficile [3] (NEN 50 mg/kg oral gavage, vancomycin 0.5 mg/mL in drinking water, more than 60% of control moribund) is “all mice in the NEN group survived”. The “diarrhea scores at recurrence” value with C. difficile [3] (mouse, in vivo) is reported as “less severe diarrhea scores”. Moreover, on TcdA, the half-maximal inhibitory concentration (IC50) turned out to be 550 ± 80 nM. In addition, the “TEER assay, dose dependence” value in the data set with CaCo-2 cells (Caco-2 cell monolayers) is “dose-dependently protects”. The MIC (in [4]; in the data set on C. sporogenes ATCC3584) was more than 19 µg/mL in each case. The “protection against TcdB derived from hypervirulent strains” value at TcdB027 is listed as “protected”.
For `CN[C@H](CC(C)C)C(=O)N[C@H]1C(=O)N[C@@H](CC(N)=O)C(=O)N[C@H]2C(=O)N[C@H]3C(=O)N[C@H](C(=O)N[C@H](C(=O)O)c4cc(O)cc(O)c4-c4cc3ccc4O)[C@H](O)c3ccc(c(Cl)c3)Oc3cc2cc(c3O[C@@H]2O[C@H](CO)[C@@H](O)[C@H](O)[C@H]2O[C@H]2C[C@](C)(N)[C@H](O)[C@H](C)O2)Oc2ccc(cc2Cl)[C@H]1O` [Vancomycin], the MIC in data set [4] was 4 µg/mL (≈ 2.76 µM); in the data set with C. difficile [5] it was 2 µg/mL (≈ 1.38 µM); in the data set on C. difficile [5] (Clostridioides difficile), 1 µg/mL (≈ 0.69 µM); against C. sporogenes ATCC3584 it was 8 µg/mL (≈ 5.52 µM).
Regarding `Cc1cc(C(C#N)c2ccc(Cl)cc2)c(Cl)cc1NC(=O)c1cc(I)cc(I)c1O` (stereo not shown) [closantel], on TcdB [6] (high-throughput screen, libraries screened at 40 μM, IMR90 cells), the “inhibition of TcdB-induced cell rounding” value is 60%.
With `O=C(Nc1ccc([N+](=O)[O-])cc1Cl)c1cc(Cl)ccc1O` [niclosamide], the inhibition at 40 µM at TcdB [6] is 71%. For the same compound, the “Protection from TcdB-induced cell-rounding (extent)” value at TcdB [6] (human IMR-90 fibroblasts co-incubated with niclosamide and TcdB) is “complete”. Moreover, the “inhibition of GTD enzymatic activity in vitro” value in data set [7] is on record as “no direct inhibition”. At TcdA, the “protection from TcdA-induced cell rounding” value was “completely protected” and 500 ± 100 nM corresponded to half-maximal inhibition (IC50). Also, the “TcdB-induced reduction in Phalloidin staining” value with CaCo-2 cells (Caco-2 cells) is reported as “prevented”. The “TcdB-induced disruption of monolayer integrity” value with CaCo-2 cells (co-treatment with TcdB, confluent CaCo-2 monolayer) is reported as “prevented”. For the same compound, the “Release of GTD by the APD domain (autoprocessing)” value at TcdB APD domain is recorded as “unaffected”. For the same compound, the “direct binding interaction with TcdB (thermal stability)” value at TcdB [8] is “no evidence for a direct binding interaction”. In addition, the TcdB-induced necrosis entry at TcdB [9] is given as “inhibited”. For the same compound, at CDT, the “protection from CDT-induced damage (depolymerization of the actin cytoskeleton)” value is “completely protected”. At TcdB [10], the “TcdB binding to the cell surface” value is “did not affect”. The “Rac1 glucosylation in cells” value with Rac1 glucosylation is reported as “dose-dependently inhibits”. Further, the “Lysotracker fluorescent staining (endosomal pH)” value in the data set with IMR90 cells was “reduces Lysotracker fluorescent staining”.
Regarding `O=C(Nc1cc(Cl)cc(Cl)c1O)c1c(O)c(Cl)cc(Cl)c1Cl` [oxyclozanide], the inhibition at 40 µM on TcdB [6] stood at 43%.

The record behind these values is patent publication US11166926B2 (priority 2018, dated 2021).
